# Legend:
# [1] = Cytotoxicity, microtetrazolium test (MTT); details: dog, MDCK cells, CC50 (MDCK), mean ±SD
melting point [°C],SMILES,CC50 at 48 h [1] [µg/mL]
176 to 180,CCOC(=O)c1c(N(Cc2ccccc2Cl)C(C)=O)sc2cc(O)ccc12,
174 to 176,CCOC(=O)c1c(N(Cc2ccc(Cl)cc2)C(C)=O)sc2c(Cl)c(O)ccc12,
172 to 176,CCOC(=O)c1c(N(Cc2ccc(Cl)cc2)C(C)=O)sc2cc(O)ccc12,
170 to 172,CCOC(=O)c1c(N(Cc2ccc(C)cc2)C(C)=O)sc2c(Cl)c(O)ccc12,
145 to 147,CCOC(=O)c1c(N(Cc2ccc(C)cc2)C(C)=O)sc2cc(O)ccc12,
229 to 233,COC(=O)c1c(N(Cc2ccccc2Cl)C(C)=O)sc2c(Cl)c(O)ccc12,
195 to 197,COC(=O)c1c(N(Cc2ccc(C)cc2)C(C)=O)sc2c(Cl)c(O)ccc12,
160 to 164,COC(=O)c1c(N(Cc2ccc(C)cc2)C(C)=O)sc2cc(O)ccc12,
182 to 186,COC(=O)c1c(N(Cc2ccccc2C(F)(F)F)C(C)=O)sc2c(Cl)c(O)ccc12,
165 to 169,COC(=O)c1c(N(Cc2ccccc2C(F)(F)F)C(C)=O)sc2cc(O)ccc12,
220 to 224,CC(=O)N(Cc1ccc(F)cc1)c1sc2c(Cl)c(O)ccc2c1C(=O)O,
145 to 150,COC(=O)c1c(N(Cc2cccc(F)c2)C(C)=O)sc2cc(O)ccc12,
210 to 212,COC(=O)c1c(N(Cc2cccc3ccccc23)C(C)=O)sc2c(Cl)c(O)ccc12,
200 to 202,COC(=O)c1c(N(Cc2ccc3ccccc3c2)C(C)=O)sc2cc(O)ccc12,
150 to 155,COC(=O)c1c(N(CCc2ccccc2)C(C)=O)sc2c(Cl)c(O)ccc12,
182 to 184,COC(=O)c1c(N(Cc2ccccc2C)C(C)=O)sc2c(Cl)c(O)ccc12,
164 to 168,COC(=O)c1c(N(Cc2ccccc2C)C(C)=O)sc2cc(O)ccc12,
204 to 208,COC(=O)c1c(N(Cc2ccccc2C#N)C(C)=O)sc2c(Cl)c(O)ccc12,
168 to 172,COC(=O)c1c(N(Cc2ccccc2C#N)C(C)=O)sc2cc(O)ccc12,
172 to 174,COC(=O)c1c(N(CCc2ccccc2F)C(C)=O)sc2c(Cl)c(O)ccc12,
183 to 185,COC(=O)c1c(N(CCc2ccccc2F)C(C)=O)sc2cc(O)ccc12,
176 to 178,CC(=O)N(Cc1ccccc1)c1sc2c(Cl)c(O)ccc2c1C#N,
185 to 190,CC(=O)N(Cc1ccccc1)c1sc2cc(O)ccc2c1C(=O)OC(C)(C)C,
230 to 234,CC(=O)N(Cc1ccccc1F)c1sc2c(Cl)c(O)ccc2c1C(=O)O,
140 to 145,CC(=O)N(Cc1ccccc1F)c1sc2cc(O)ccc2c1C(=O)O,
145 to 147,CNC(=O)c1c(N(Cc2ccccc2)C(C)=O)sc2c(CN(C)C)c(O)ccc12,
,"COC(=O)c1c(N(Cc2ccccc2)C(C)=O)sc2c(Cl)c(O)ccc12 [Example 3, Methyl 2-[acetyl(benzyl)amino]-7-chloro-6-hydroxy-1-benzothiophene-3-carboxylate]",4.5 ± 0.3
,"CC(=O)N(Cc1ccccc1)c1sc2cc(O)ccc2c1C#N [Example 47, N-benzyl-N-(3-cyano-6-hydroxy-1-benzothiophene-2-yl)acetamide]",16.8 ± 1.5

SMILES,melting point [°C],CC50 at 48 h [1] [µg/mL]
COC(=O)c1c(N(Cc2ccc(F)cc2)C(C)=O)sc2c(CN(C)C)c(O)ccc12,145 to 149,
"CCOC(=O)c1c(N(Cc2ccccc2)C(C)=O)sc2c(Cl)c(O)ccc12 [Example 1, Ethyl 2-[acetyl(benzyl)amino]-7-chloro-6-hydroxy-1-benzothiophene-3-carboxylate]",151 to 155,> 300
"CCOC(=O)c1c(N(Cc2ccccc2)C(C)=O)sc2cc(O)ccc12 [Example 2, Ethyl 2-[acetyl(benzyl)amino]-6-hydroxy-1-benzothiophene-3-carboxylate]",146 to 148,11.7 ± 0.6
"CC(=O)N(Cc1ccccc1)c1sc2c(Cl)c(O)ccc2c1C(=O)OC(C)(C)C [Example 5, Tert-butyl 2-[acetyl(benzyl)amino]-7-chloro-6-hydroxy-1-benzothiophene-3-carboxylate]",200 to 205,4.1 ± 0.2
"CC(=O)N(Cc1ccccc1)c1sc2c(Cl)c(O)ccc2c1C(=O)OC(C)C [Example 7, Isopropyl 2-[acetyl(benzyl)amino]-7-chloro-6-hydroxy-1-benzothiophene-3-carboxylate]",164 to 168,2.2 ± 0.3
"CC(=O)N(Cc1ccccc1)c1sc2cc(O)ccc2c1C(=O)OC(C)C [Example 8, Isopropyl 2-[acetyl(benzyl)amino]-6-hydroxy-1-benzothiophene-3-carboxylate]",126 to 130,13.9 ± 1.1
"CCOC(=O)c1c(N(Cc2ccccc2Cl)C(C)=O)sc2c(Cl)c(O)ccc12 [Example 9, Ethyl 2-[acetyl(2-chlorobenzyl)amino]-7-chloro-6-hydroxy-1-benzothiophene-3-carboxylate]",174 to 178,8.3 ± 0.3
"COC(=O)c1c(N(Cc2ccccc2Cl)C(C)=O)sc2cc(O)ccc12 [Example 16, Methyl 2-[acetyl(2-chlorobenzyl)amino]-6-hydroxy-1-benzothiophene-3-carboxylate]",220 to 224,21
"COC(=O)c1c(N(Cc2ccc(C(F)(F)F)cc2)C(C)=O)sc2c(Cl)c(O)ccc12 [Example 21, Methyl 2-[acetyl(4-trifluoromethylbenzyl)amino]-7-chloro-6-hydroxy-1-benzothiophene-3-carboxylate]",176 to 180,5.6 ± 0.2
"COC(=O)c1c(N(Cc2ccc(C(F)(F)F)cc2)C(C)=O)sc2cc(O)ccc12 [Example 22, Methyl 2-[acetyl(4-trifluoromethylbenzyl)amino]-6-hydroxy-1-benzothiophene-3-carboxylate]",171 to 175,3.2 ± 0.8
"COC(=O)c1c(N(Cc2ccccc2F)C(C)=O)sc2cc(O)ccc12 [Example 24, Methyl 2-[acetyl(2-fluorobenzyl)amino]-6-hydroxy-1-benzothiophene-3-carboxylate]",165 to 167,> 300
"COC(=O)c1c(N(Cc2cccc(F)c2)C(C)=O)sc2c(Cl)c(O)ccc12 [Example 25, Methyl 2-[acetyl(3-fluorobenzyl)amino]-7-chloro-6-hydroxy-1-benzothiophene-3-carboxylate]",152 to 155,25.5 ± 2.7
"COC(=O)c1c(N(Cc2ccc(F)cc2)C(C)=O)sc2c(Cl)c(O)ccc12 [Example 27, Methyl 2-[acetyl(4-fluorobenzyl)amino]-7-chloro-6-hydroxy-1-benzothiophene-3-carboxylate]",233 to 235,39.8 ± 2.5
"COC(=O)c1c(N(Cc2ccc(F)cc2)C(C)=O)sc2cc(O)ccc12 [Example 28, Methyl 2-[acetyl(4-fluorobenzyl)amino]-6-hydroxy-1-benzothiophene-3-carboxylate]",198 to 202,240 ± 19
"COC(=O)c1c(N(Cc2ccc(F)cc2F)C(C)=O)sc2c(Cl)c(O)ccc12 [Example 29, Methyl 2-[acetyl(2,4-difluorobenzyl)amino]-7-chloro-6-hydroxy-1-benzothiophene-3-carboxylate]",205 to 210,> 300
"COC(=O)c1c(N(Cc2ccc(F)cc2F)C(C)=O)sc2cc(O)ccc12 [Example 30, Methyl 2-[acetyl(2,4-difluorobenzyl)amino]-6-hydroxy-1-benzothiophene-3-carboxylate]",178 to 180,> 300
"COC(=O)c1c(N(Cc2cccc3ccccc23)C(C)=O)sc2cc(O)ccc12 [Example 32, Methyl 2-[acetyl(1-naphthylmethyl)amino]-6-hydroxy-1-benzothiophene-3-carboxylate]",198 to 202,> 300
"COC(=O)c1c(N(Cc2ccc3ccccc3c2)C(C)=O)sc2c(Cl)c(O)ccc12 [Example 33, Methyl 2-[acetyl(2-naphthylmethyl)amino]-7-chloro-6-hydroxy-1-benzothiophene-3-carboxylate]",185 to 190,3.7 ± 0.4
"COC(=O)c1c(N(CCc2ccccc2)C(C)=O)sc2cc(O)ccc12 [Example 36, Methyl 2-[acetyl(2-phenylethyl)amino]-6-hydroxy-1-benzothiophene-3-carboxylate]",190 to 194,> 300
"COC(=O)c1c(N(C(C)=O)C(C)c2ccccc2)sc2c(Cl)c(O)ccc12 (centres unmarked) [Example 37, Methyl 2-[acetyl(1-phenylethyl)amino]-7-chloro-6-hydroxy-1-benzothiophene-3-carboxylate]",195 to 200,24.5 ± 2.2
"COC(=O)c1c(N(C(C)=O)C(C)c2ccccc2)sc2cc(O)ccc12 (centres unmarked) [Example 38, Methyl 2-[acetyl(1-phenylethyl)amino]-6-hydroxy-1-benzothiophene-3-carboxylate]",152 to 157,30
"COC(=O)c1c(N(Cc2ccc(C(C)C)cc2)C(C)=O)sc2c(Cl)c(O)ccc12 [Example 41, Methyl 2-[acetyl(4-isopropylbenzyl)amino]-7-chloro-6-hydroxy-1-benzothiophene-3-carboxylate]",183 to 186,5 ± 0.5
"COC(=O)c1c(N(Cc2ccc(C(C)C)cc2)C(C)=O)sc2cc(O)ccc12 [Example 42, Methyl 2-[acetyl(4-isopropylbenzyl)amino]-6-hydroxy-1-benzothiophene-3-carboxylate]",141 to 145,10
COC(=O)c1c(N(Cc2ccccc2Cl)C(C)=O)sc2c(CN(C)C)c(O)ccc12 [Example 51],132 to 136,> 300
COC(=O)c1c(N(Cc2cccc(F)c2)C(C)=O)sc2c(CN(C)C)c(O)ccc12 [Example 53],142 to 144,> 300
